Laboratory results as given in US20040115237A1, “Biocompatible composite” (priority 2001, published 2004).

Columns and labels:
HA-VSCMs = experiment: HA-VSMC culture on silicone based film membranes, viability staining viewed under CLSM; type: cell-based, Human; settings: GTN coated FISi membrane vs FISi only film membranes
Protocol: HA-VSCMs were cultured on silicone based film membranes supplied by Vascutek. 2 membrane types were tested: uncoated FISi membrane and FISi membrane coated with GTN. Cells were seeded at 5×10^3 seeding density. Cells were cultured for a week and the medium was changed every two days. […] This problem was overcome by sticking the coverslips to the plate with double sided tape before the wells were seeded. Furthermore the cells were washed off during staining or the cells were saved for too long. Some cells were saved by introducing a gentle washing step. On the seventh day, the coverslips were stained and viewed under the CLSM for viability studies.
The following were used as viability stains; CFDA (carboxyfluorescein diacetate) is a vital stain that penetrates cell membranes. Viable cells contain esterase enzymes that remove the diacetate from the molecule thus forming CF which is fluorescent. Once CF if formed, it accumulates in the membrane and viable cells with fluoresce bright green.
Ethidium Bromide: is a vital dye that is only able to pass through the compromised membrane of dead cells and stain them red.
Acridine Orange: is a dye which intercalates with DNA and RNA by intercalation or electrostatic attraction.

[1] = tested on: Human Aortic Vascular SMC cell line; experiment: SMC growth inhibition after drug exposure, MTT assay and Neutral Red assay; type: cell-based; settings: high doses; analysed after 72 hours
Protocol: The Human Aortic Vascular SMC cell line was investigated. 96 well plates were seeded and were incubated for at least one day. Medium from the plate was removed and replaced with medium containing varying concentrations of drugs, the drugs being dex, aspirin, GTN or a combination of these drugs. The effects of the drugs were analysed after 72 hours with two viability assays: MTT assay and Neutral Red assay. Absorbance values were read from a microplate reader. MTT is a yellow tetrazolium salt taken up into cells. In viable cells, the salt was reduced in cytosol or mitochondria to form blue formazan salt. The formazan product was very insoluble and was disolved in dimethylsulphoxide before its absorbance was calculated. In non-viable cells, there was no reaction and the cells remained yellow. The Neutral Red assay involved adding neutral red solution, a red dye to cells. In viable cells, the dye stained lysosomes. The cells were incubated with neutral red solution for three hours (to enable dye to penetrate cells), a neutral red destain solution was then added to remove the dye. The intensity of the red colour equated to the number of viable cells.

| Structure (SMILES) | cell growth compared to FISi only film membranes (HA-VSCMs) | role in the treatment of vascular proliferative disorder (SMC growth inhibition) [1] |
| --- | --- | --- |
| O=[N+]([O-])OCC(CO[N+](=O)[O-])O[N+](=O)[O-] [GTN, Glyceryl Trinitrate] | does not significantly decrease cell growth | – |
| CC(=O)Oc1ccccc1C(=O)O [aspirin, acetylsalicylic acid] | – | appear to have a beneficial role |
